Experimental data taken from the NIST ThermoML archive (doi:10.1021/je900124n).
Where “and” joins values, the source holds several entries; their conditions need not be identical. Equal entries are not always repeated.

Conditions: Fluid (supercritical or subcritical phases), Buoyancy - hydrostatic balance with magnetic suspension - two sinkers

CCC [propane]
Conditions	mass density
340 K, 34960 kPa	514.104 kg/m3
340 K, 34961 kPa	514.106 kg/m3
340 K, 34962 kPa	514.105 kg/m3
345 K, 2494.9 kPa	58.0748 kg/m3 and 58.0791 kg/m3 and 58.0771 kg/m3
345 K, 2495 kPa	58.0845 kg/m3 and 58.0787 kg/m3
350 K, 1942.1 kPa	37.8566 kg/m3 and 37.8552 kg/m3
350 K, 1942.5 kPa	37.8654 kg/m3 and 37.8643 kg/m3
350 K, 1942.6 kPa	37.8656 kg/m3
350 K, 2573.5 kPa	58.0372 kg/m3 and 58.0366 kg/m3
350 K, 2573.6 kPa	58.041 kg/m3 and 58.0413 kg/m3 and 58.0386 kg/m3
350 K, 2844.7 kPa	70.6094 kg/m3
350 K, 2844.9 kPa	70.6242 kg/m3
350 K, 2845 kPa	70.6246 kg/m3
350 K, 2845.1 kPa	70.6278 kg/m3 and 70.6365 kg/m3
350 K, 2845.2 kPa	70.6334 kg/m3
350 K, 2845.3 kPa	70.6504 kg/m3 and 70.6463 kg/m3
350 K, 3505.9 kPa	392.661 kg/m3
350 K, 3506 kPa	392.666 kg/m3
350 K, 3506.2 kPa	392.664 kg/m3
350 K, 3506.3 kPa	392.667 kg/m3
350 K, 3506.4 kPa	392.663 kg/m3 and 392.666 kg/m3
350 K, 3506.5 kPa	392.666 kg/m3
350 K, 12070 kPa	449.428 kg/m3 [middle of 6 runs]
350 K, 12071 kPa	449.434 kg/m3 and 449.429 kg/m3
350 K, 24455 kPa	484.992 kg/m3 and 484.989 kg/m3
350 K, 24456 kPa	484.992 kg/m3
355 K, 2650.7 kPa	57.9954 kg/m3 [middle of 4 runs]
355 K, 3003.3 kPa	73.4591 kg/m3 [middle of 6 runs]
355.01 K, 3003.3 kPa	73.4598 kg/m3
359 K, 3436 kPa	96.2198 kg/m3
359 K, 3436.4 kPa	96.2687 kg/m3 and 96.2618 kg/m3 and 96.2668 kg/m3
359 K, 3436.5 kPa	96.2652 kg/m3
359.99 K, 15760 kPa	448.817 kg/m3
359.99 K, 15761 kPa	448.823 kg/m3
360 K, 303.73 kPa	4.597 kg/m3 and 4.5969 kg/m3
360 K, 303.74 kPa	4.597 kg/m3 and 4.5971 kg/m3
360 K, 539.35 kPa	8.3504 kg/m3
360 K, 539.36 kPa	8.3506 kg/m3 and 8.3504 kg/m3 and 8.3503 kg/m3
360 K, 901.24 kPa	14.4832 kg/m3 and 14.4833 kg/m3
360 K, 901.25 kPa	14.4835 kg/m3 and 14.4836 kg/m3
360 K, 1361.2 kPa	23.0769 kg/m3 and 23.078 kg/m3
360 K, 1361.3 kPa	23.0792 kg/m3
360 K, 1361.4 kPa	23.0819 kg/m3 and 23.0827 kg/m3
360 K, 2033.2 kPa	37.8651 kg/m3
360 K, 2033.3 kPa	37.8677 kg/m3
360 K, 2033.4 kPa	37.8707 kg/m3
360 K, 2033.5 kPa	37.8723 kg/m3 and 37.8724 kg/m3
360 K, 2725.4 kPa	57.912 kg/m3
360 K, 2725.5 kPa	57.9157 kg/m3
360 K, 2725.6 kPa	57.9165 kg/m3
360 K, 3108.3 kPa	73.4362 kg/m3 [middle of 6 runs]
360 K, 3108.4 kPa	73.4363 kg/m3
360 K, 3467.9 kPa	96.3808 kg/m3 and 96.381 kg/m3
360 K, 3468 kPa	96.3801 kg/m3 and 96.3793 kg/m3 and 96.3804 kg/m3
360 K, 3730.9 kPa	352.636 kg/m3 and 352.637 kg/m3
360 K, 3731 kPa	352.635 kg/m3
360 K, 3731.1 kPa	352.636 kg/m3
360 K, 5948.1 kPa	392.145 kg/m3
360 K, 5948.8 kPa	392.137 kg/m3
360 K, 5949.1 kPa	392.137 kg/m3
360 K, 5949.4 kPa	392.137 kg/m3 and 392.14 kg/m3 and 392.139 kg/m3
360 K, 5949.5 kPa	392.138 kg/m3
360 K, 5949.7 kPa	392.139 kg/m3
360 K, 7930.9 kPa	409.823 kg/m3
360 K, 7931 kPa	409.821 kg/m3
360 K, 7931.2 kPa	409.824 kg/m3
360 K, 7931.3 kPa	409.824 kg/m3
360 K, 11923 kPa	433.101 kg/m3 [middle of 5 runs]
360 K, 15761 kPa	448.822 kg/m3 and 448.82 kg/m3 and 448.823 kg/m3
360 K, 15762 kPa	448.821 kg/m3 and 448.822 kg/m3
360 K, 16074 kPa	449.912 kg/m3
360 K, 16075 kPa	449.912 kg/m3 and 449.911 kg/m3
360 K, 19910 kPa	462.101 kg/m3 and 462.102 kg/m3
360 K, 23890 kPa	472.673 kg/m3 and 472.674 kg/m3 and 472.672 kg/m3
360 K, 23891 kPa	472.674 kg/m3
360 K, 30126 kPa	486.462 kg/m3
360 K, 30127 kPa	486.462 kg/m3
360 K, 35259 kPa	496.072 kg/m3
360 K, 35260 kPa	496.073 kg/m3 and 496.072 kg/m3
360 K, 35262 kPa	496.074 kg/m3
360.01 K, 901.24 kPa	14.4833 kg/m3
360.01 K, 3108.3 kPa	73.4355 kg/m3
365 K, 3675.6 kPa	100.804 kg/m3 and 100.799 kg/m3 and 100.803 kg/m3
365 K, 3675.7 kPa	100.805 kg/m3
365 K, 4200.9 kPa	337.532 kg/m3 and 337.539 kg/m3 and 337.537 kg/m3
365 K, 4201.1 kPa	337.536 kg/m3
365 K, 4201.2 kPa	337.534 kg/m3
365 K, 4201.3 kPa	337.537 kg/m3 and 337.54 kg/m3
365 K, 4201.5 kPa	337.541 kg/m3
369 K, 4143.7 kPa	146.446 kg/m3 [middle of 6 runs]
369 K, 4143.8 kPa	146.438 kg/m3 and 146.437 kg/m3
369 K, 4197.8 kPa	281.2 kg/m3 and 281.206 kg/m3
369 K, 4197.9 kPa	281.145 kg/m3
369 K, 4198 kPa	281.222 kg/m3 [middle of 4 runs]
369 K, 4198.1 kPa	281.241 kg/m3
369.82 K, 4245.5 kPa	199.588 kg/m3 and 199.89 kg/m3 and 199.647 kg/m3
369.82 K, 4245.6 kPa	199.834 kg/m3
369.82 K, 4246.6 kPa	245.595 kg/m3
369.82 K, 4985.6 kPa	337.371 kg/m3
369.82 K, 19374 kPa	448.259 kg/m3
369.82 K, 19375 kPa	448.259 kg/m3 [middle of 7 runs]
369.83 K, 3309.2 kPa	73.3627 kg/m3
369.83 K, 3309.3 kPa	73.3633 kg/m3 and 73.3643 kg/m3 and 73.3637 kg/m3
369.83 K, 3309.4 kPa	73.3693 kg/m3 [middle of 4 runs]
369.83 K, 4186.1 kPa	146.569 kg/m3
369.83 K, 4186.2 kPa	146.57 kg/m3 [middle of 6 runs]
369.83 K, 4186.3 kPa	146.572 kg/m3
369.83 K, 4245.5 kPa	199.889 kg/m3
369.83 K, 4245.6 kPa	200.17 kg/m3 and 199.849 kg/m3 and 199.989 kg/m3
369.83 K, 4246.6 kPa	245.029 kg/m3 and 245.142 kg/m3
369.83 K, 4246.7 kPa	245.511 kg/m3 and 245.436 kg/m3
369.83 K, 4246.8 kPa	245.25 kg/m3 and 245.225 kg/m3
369.83 K, 4246.9 kPa	245.368 kg/m3
369.83 K, 4284.4 kPa	281.216 kg/m3
369.83 K, 4284.5 kPa	281.229 kg/m3 and 281.217 kg/m3
